From publication PMC6155188 (2017)

What was measured:
[1] = tested on: GP1 (DNA, aptamer) GGAGGCTCTCGGGACGACGGGAGCATCATTCTGAGTGTTATGTGGATTGATACGTCTGGTCGTCCCGATGCTGCAATCGTAA; assay: structure-switching fluorescence titration, Kd = Kd,eff1/Kd,eff2; details: 500 mM NaCl, 10 mM MgCl2, 5 mM KCl; 20 mM HEPES pH 7.4, ~23 °C; dabcyl-cDNA displaced (sequence not in text); 50 nM each strand
[2] = tested on: GP2 (DNA, aptamer) GGAGGCTCTCGGGACGACGGTGTGGCCCGTGGTGTCACTAATGAAGGGATTCATTTCAGTCGTCCCGATGCTGCAATCGTAA; assay: as above; details: 500 mM NaCl, 10 mM MgCl2, 5 mM KCl; 20 mM HEPES pH 7.4, ~23 °C; dabcyl-cDNA displaced (sequence not in text); 50 nM each strand
[3] = tested on: GP1 (DNA, aptamer) GGAGGCTCTCGGGACGACGGGAGCATCATTCTGAGTGTTATGTGGATTGATACGTCTGGTCGTCCCGATGCTGCAATCGTAA; assay: structure-switching fluorescence titration; details: 500 mM NaCl, 10 mM MgCl2, 5 mM KCl; 20 mM HEPES pH 7.4, room temperature; dabcyl-cDNA displaced; ligand stocks up to 200 mM
[4] = tested on: GP2 (DNA, aptamer) GGAGGCTCTCGGGACGACGGTGTGGCCCGTGGTGTCACTAATGAAGGGATTCATTTCAGTCGTCCCGATGCTGCAATCGTAA; assay: structure-switching fluorescence titration; details: 500 mM NaCl, 10 mM MgCl2, 5 mM KCl; 20 mM HEPES pH 7.4, room temperature; dabcyl-cDNA displaced; ligand stocks up to 200 mM

| SMILES | Kd [1] | Kd [2] | binding [3] | binding [4] |
| --- | --- | --- | --- | --- |
| COC(=O)C1=CO[C@@H](O[C@@H]2O[C@H](CO)[C@@H](O)[C@H](O)[C@H]2O)[C@@H]2C(CO)=CC[C@H]12 | ~ 6.1 μM | ~ 2.0 μM | – | – |
| COC(=O)C1=CO[C@@H](O)[C@@H]2C(CO)=CC[C@H]12 | – | – | no | no |
| OC[C@H]1OC(O)[C@H](O)[C@@H](O)[C@@H]1O (stereo partly drawn) | – | – | no | no |
